Test results: patent US10875876B2, “Cyclized sulfamoylarylamide derivatives and the use thereof as medicaments for the treatment of hepatitis B” (priority 2015, dated 2020)
Like-named read-outs stand apart in the source and are kept apart here.

Columns and labels:
HepG2 cells = assay: Cytotoxicity in HepG2 cells, Resazurin assay; conditions: read-out: TOX-HepG2-4 d CC50; HepG2 cells incubated for 4 days, viability by Resazurin assay
HBV = assay: anti HBV activity, HepG2.117 cell line, intracellular HBV DNA by realtime PCR; format: cell-based; conditions: HepG2.117 cell line (Tet-off), 3 days of treatment, intracellular HBV DNA quantified by realtime PCR, read-out: HBV-AVE-HepG2.117 EC50
Method in brief: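 HepG2.117 cells, a Tet-off line that replicates HBV without doxycycline, were induced and then treated in duplicate with serially diluted compound. After 3 days, intracellular HBV DNA was quantified by real-time PCR with an HBV-specific primer set and probe.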

[1] = Cytotoxicity in HepG2 cells, Resazurin assay; conditions: human, HepG2 cells, TOX-HepG2-4 d CC50 (μM), HepG2 cells incubated for 4 days, viability by Resazurin assay
[2] = Hepatitis B virus, HepG2.117, 72 h

Structure (SMILES)	CC50 (HepG2 cells)	EC50 (HBV; [2])	EC50 (HBV)	CC50 at 4 days [1]	melting point
Cc1cccc(C2(C)COc3c(cn(C)c3C(=O)Nc3ccc(F)c(C(F)F)c3)S(=O)(=O)N2)n1 (single isomer, unassigned) [Compound 177b, N-[3-(difluoromethyl)-4-fluoro-phenyl]-3,7-dimethyl-3-(6-methyl-2-pyridyl)-1,1-dioxo-2,4-dihydropyrrolo[3,4-b][1,4,5]oxathiazepine-6-carboxamide]	> 25 µM	0.004 µM			
Cn1cc2c(c1C(=O)Nc1ccc(F)c(F)c1)OCC(C1CCOCC1)NS2(=O)=O (single isomer, unassigned) [Compound 89b, N-(3,4-difluorophenyl)-7-methyl-1,1-dioxo-3-tetrahydropyran-4-yl-3,4-dihydro-2H-pyrrolo[3,4-b][1,4,5]oxathiazepine-6-carboxamide]	> 25 µM		0.017 µM		
Cn1cc2c(c1C(=O)Nc1ccc(F)c(F)c1)OCC(C)(c1cnccn1)NS2(=O)=O (single isomer, unassigned) [Compound 145b, N-(3,4-difluorophenyl)-3,7-dimethyl-1,1-dioxo-3-pyrazin-2-yl-2,4-dihydropyrrolo[3,4-b][1,4,5]oxathiazepine-6-carboxamide]	> 25 µM		0.06 µM		
Cn1cc2c(c1C(=O)Nc1ccc(F)c(F)c1)O[C@@H](C(F)(F)F)[C@H](CO)NS2(=O)=O [compound 244]	> 25 µM		> 0.5 µM		
CC1C/C=C\c2c(cn(C)c2C(=O)Nc2ccc(F)c(F)c2)S(=O)(=O)N1 (single isomer, unassigned) [Compound 15b, (5Z)—N-(3,4-difluorophenyl)-3,8-dimethyl-1,1-dioxo-3,4-dihydro-2H-pyrrolo[3,4-g]thiazocine-7-carboxamide]	> 25 µM		> 0.5 µM		
Cn1cc2c(c1C(=O)Nc1ccc(F)c(F)c1)OCC(C)(c1ncco1)NS2(=O)=O (single isomer, unassigned) [Compound 160b, N-(3,4-difluorophenyl)-3,7-dimethyl-3-oxazol-2-yl-1,1-dioxo-2,4-dihydropyrrolo[3,4-b][1,4,5]oxathiazepine-6-carboxamide]	> 25 µM		0.021 µM		
Cn1cc2c(c1C(=O)Nc1ccc(F)c(F)c1)OCC(C)(Cc1cccnc1)NS2(=O)=O (single isomer, unassigned) [Compound 199b, N-(3,4-difluorophenyl)-3,7-dimethyl-1,1-dioxo-3-(3-pyridylmethyl)-2,4-dihydropyrrolo[3,4-b][1,4,5]oxathiazepine-6-carboxamide]	> 25 µM		0.008 µM		
CC(NCC(F)(F)F)C1COc2c(cn(C)c2C(=O)Nc2ccc(F)c(C#N)c2)S(=O)(=O)N1 (single isomer, unassigned) [Compound 161b, N-(3-cyano-4-fluoro-phenyl)-7-methyl-1,1-dioxo-3-[1-(2,2,2-trifluoroethylamino)ethyl]-3,4-dihydro-2H-pyrrolo[3,4-b][1,4,5]oxathiazepine-6-carboxamide]	> 25 µM		> 0.125 µM		
Cn1cc2c(c1C(=O)Nc1ccc(F)c(C#N)c1)CCC(C(F)(F)F)NS2(=O)=O (single isomer, unassigned) [Compound 60b, N-(3-cyano-4-fluoro-phenyl)-7-methyl-1,1-dioxo-3-(trifluoromethyl)-2,3,4,5-tetrahydropyrrolo[3,4-f]thiazepine-6-carboxamide]	> 25 µM		0.005 µM		
CC(C)C(O)C1COc2c(cn(C)c2C(=O)Nc2ccc(F)c(C#N)c2)S(=O)(=O)N1 (stereo not shown) [Compound 119b, N-(3-cyano-4-fluoro-phenyl)-3-(1-hydroxy-2-methyl-propyl)-7-methyl-1,1-dioxo-3,4-dihydro-2H-pyrrolo[3,4-b][1,4,5]oxathiazepine-6-carboxamide]	> 25 µM		0.006 µM		
Cn1cc2c(c1C(=O)Nc1ccnc(C(F)F)c1)OCC(C)(CO)NS2(=O)=O (single isomer, unassigned) [Compound 215b, N-[2-(difluoromethyl)-4-pyridyl]-3-(hydroxymethyl)-3,7-dimethyl-1,1-dioxo-2,4-dihydropyrrolo[3,4-b][1,4,5]oxathiazepine-6-carboxamide]	> 25 µM		> 0.125 µM		
Cn1cc2c(c1C(=O)Nc1ccc(F)c(F)c1)OC[C@H](C(O)C1CC1)NS2(=O)=O (stereo partly drawn) [Compound 105b, (3R)-3-[cyclopropyl(hydroxy)methyl]-N-(3,4-difluorophenyl)-7-methyl-1,1-dioxo-3,4-dihydro-2H-pyrrolo[3,4-b][1,4,5]oxathiazepine-6-carboxamide]	> 25 µM		0.011 µM		
Cn1cc2c(c1C(=O)Nc1cc(F)c(F)c(F)c1)OC[C@H](C(O)C1CC1)NS2(=O)=O (single isomer, unassigned) [Compound 208b, 3-[cyclopropyl(hydroxy)methyl]-7-methyl-1,1-dioxo-N-(3,4,5-trifluorophenyl)-3,4-dihydro-2H-pyrrolo[3,4-b][1,4,5]oxathiazepine-6-carboxamide]	> 25 µM		0.011 µM		
C[C@@H]1Oc2c(cn(C)c2C(=O)Nc2ccc(F)c(C#N)c2)S(=O)(=O)N[C@@H]1CO [compound 235]	> 25 µM		> 0.5 µM		
CCC(O)[C@H]1COc2c(cn(C)c2C(=O)Nc2ccc(F)c(C(F)F)c2)S(=O)(=O)N1 (stereo partly drawn) [Compound 124b, (3R)—N-[3-(difluoromethyl)-4-fluoro-phenyl]-3-(1-hydroxypropyl)-7-methyl-1,1-dioxo-3,4-dihydro-2H-pyrrolo[3,4-b][1,4,5]oxathiazepine-6-carboxamide]	> 25 µM		0.004 µM		
CC1C=Cc2c(cn(C)c2C(=O)Nc2ccc(F)c(F)c2)S(=O)(=O)N1 (single isomer, unassigned) [Compound 7b, N-(3,4-difluorophenyl)-3,7-dimethyl-1,1-dioxo-2,3-dihydropyrrolo-[3,4-f]thiazepine-6-carboxamide]	> 25 µM		0.007 µM		
Cc1cc(NC(=O)c2c3c(cn2C)S(=O)(=O)N[C@@H](C(O)C2CC2)CO3)ccc1F (single isomer, unassigned) [Compound 206b, 3-[cyclopropyl(hydroxy)methyl]-N-(4-fluoro-3-methyl-phenyl)-7-methyl-1,1-dioxo-3,4-dihydro-2H-pyrrolo[3,4-b][1,4,5]oxathiazepine-6-carboxamide]	> 25 µM		0.012 µM		
Cn1cc2c(c1C(=O)Nc1ccc(F)c(C#N)c1)CCC(C(C)(C)O)NS2(=O)=O (single isomer, unassigned) [Compound 116b, N-(3-cyano-4-fluoro-phenyl)-3-(1-hydroxy-1-methyl-ethyl)-7-methyl-1,1-dioxo-2,3,4,5-tetrahydropyrrolo[3,4-f]thiazepine-6-carboxamide]	> 25 µM		> 0.35 µM		
CCC(O)[C@H]1COc2c(cn(C)c2C(=O)Nc2ccc(F)c(C#N)c2)S(=O)(=O)N1 (stereo partly drawn) [Compound 122b, (3R)—N-(3-cyano-4-fluoro-phenyl)-3-(1-hydroxypropyl)-7-methyl-1,1-dioxo-3,4-dihydro-2H-pyrrolo[3,4-b][1,4,5]oxathiazepine-6-carboxamide]	> 25 µM		0.009 µM		
Cn1cc2c(c1C(=O)Nc1cc(F)c(F)c(F)c1)OCC(C)(CO)NS2(=O)=O (single isomer, unassigned) [Compound 214b, 3-(hydroxymethyl)-3,7-dimethyl-1,1-dioxo-N-(3,4,5-trifluorophenyl)-2,4-dihydropyrrolo[3,4-b][1,4,5]oxathiazepine-6-carboxamide]	> 25 µM		0.022 µM		
CC(C)C1C=Cc2c(cn(C)c2C(=O)Nc2ccc(F)c(F)c2)S(=O)(=O)N1 (single isomer, unassigned) [Compound 79b, N-(3,4-difluorophenyl)-3-isopropyl-7-methyl-1,1-dioxo-2,3-dihydropyrrolo[3,4-f]thiazepine-6-carboxamide]	> 25 µM		0.002 µM		
Cc1cc(NC(=O)c2c3c(cn2C)S(=O)(=O)N[C@@H]([C@H](C)O)CC3)ccc1F [Compound 112, (3R)—N-(4-fluoro-3-methyl-phenyl)-3-[(1S)-1-hydroxyethyl]-7-methyl-1,1-dioxo-2,3,4,5-tetrahydropyrrolo[3,4-f]thiazepine-6-carboxamide]		0.003 µM		> 25 µM	287.3 °C
C[C@H]1CCc2c(cn(C)c2C(=O)Nc2ccc(F)c(C#N)c2F)S(=O)(=O)N1 [Compound 157, (3S)—N-(3-cyano-2,4-difluoro-phenyl)-3,7-dimethyl-1,1-dioxo-2,3,4,5-tetrahydropyrrolo[3,4-f]thiazepine-6-carboxamide]		0.017 µM		> 25 µM	247.5 °C
Cn1cc2c(c1C(=O)Nc1ccc(F)c(F)c1)OCC(C)(c1ncccn1)NS2(=O)=O (single isomer, unassigned) [Compound 153a, N-(3,4-difluorophenyl)-3,7-dimethyl-1,1-dioxo-3-pyrimidin-2-yl-2,4-dihydropyrrolo[3,4-b][1,4,5]oxathiazepine-6-carboxamide]			> 0.125 µM	> 25 µM	228.3 °C
Cc1cc(CC2(C)COc3c(cn(C)c3C(=O)Nc3ccc(F)c(C(F)F)c3)S(=O)(=O)N2)n(C)n1 (single isomer, unassigned) [Compound 176b, N-[3-(difluoromethyl)-4-fluoro-phenyl]-3-[(2,5-dimethylpyrazol-3-yl)methyl]-3,7-dimethyl-1,1-dioxo-2,4-dihydropyrrolo[3,4-b][1,4,5]oxathiazepine-6-carboxamide]	> 25 µM				
